From ChEMBL document CHEMBL1150286, “Discovery and optimization of triazolopyridazines as potent and selective inhibitors of the c-Met kinase” (J Med Chem, 2008)

Assays:
[1] = Drug level in orally dosed mouse plasma after 6 hrs; type: ADME, organism-based; conditions: po
Mus musculus = assay: Inhibition of HGF-mediated c-Met phosphorylation in orally dosed mouse liver; type: functional; conditions: po
[2] = target: Mast/stem cell growth factor receptor Kit (Homo sapiens) (UniProt P10721); assay: Inhibition of cKit
[3] = target: Tyrosine-protein kinase ABL1 (Homo sapiens) (UniProt P00519); assay: Inhibition of Abl
[4] = target: Tyrosine-protein kinase JAK2 (Homo sapiens) (UniProt O60674); assay: Inhibition of Jak2
[5] = target: Ribosomal protein S6 kinase alpha-5 (Homo sapiens) (UniProt O75582); assay: Inhibition of Msk1
[6] = Inhibition of PKAalpha
[7] = target: Mitogen-activated protein kinase 3 (Homo sapiens) (UniProt P27361); assay: Inhibition of Erk1
[8] = target: RAC-alpha serine/threonine-protein kinase (Homo sapiens) (UniProt P31749); assay: Inhibition of PKBalpha
[9] = target: T1, Hepatocyte growth factor receptor (Homo sapiens, UniProt P08581); assay: Inhibition of c-Met by HTRF assay
[10] = Clearance in rat liver microsomes; type: ADME, Microsome
[11] = Clearance in mouse liver microsomes; type: ADME, Microsome
[12] = Clearance in Sprague-Dawley rat at 0.25 mg/kg, iv; type: ADME, organism-based; design: dose 0.25 mg/kg, route intravenous; conditions: in vivo
[13] = Volume of distribution in steady state in Sprague-Dawley rat at 0.25 mg/kg, iv; type: ADME, organism-based; design: dose 0.25 mg/kg, route intravenous; conditions: in vivo, read-out: Vdss
[14] = Half life in Sprague-Dawley rat at 0.25 mg/kg, iv; type: ADME, organism-based; design: dose 0.25 mg/kg, route intravenous; conditions: in vivo
[15] = AUC (0 to infinity) in Sprague-Dawley rat at 2 mg/kg, po; type: ADME, organism-based; design: time infinity, dose 2 mg/kg, route oral; conditions: plasma
[16] = Bioavailability in Sprague-Dawley rat at 2 mg/kg, po; type: ADME, organism-based; conditions: in vivo
[17] = target: Vascular endothelial growth factor receptor 2 (Homo sapiens) (UniProt P35968); assay: Inhibition of KDR
[18] = target: Tyrosine-protein kinase Lck (Homo sapiens) (UniProt P06239); assay: Inhibition of Lck
[19] = target: Proto-oncogene tyrosine-protein kinase Src (Homo sapiens) (UniProt P12931); assay: Inhibition of Src
[20] = target: Insulin-like growth factor 1 receptor (Homo sapiens) (UniProt P08069); assay: Inhibition of IGF1R
[21] = target: Tyrosine-protein kinase BTK (Homo sapiens) (UniProt Q06187); assay: Inhibition of Btk
[22] = target: Angiopoietin-1 receptor (Homo sapiens) (UniProt Q02763); assay: Inhibition of Tie2
[23] = Inhibition of p38
[24] = target: Mitogen-activated protein kinase 9 (Homo sapiens) (UniProt P45984); assay: Inhibition of JNK2
[25] = target: Cyclin-dependent kinase 5 (Homo sapiens) (UniProt Q00535); assay: Inhibition of CDK5
[26] = target: T1, Hepatocyte growth factor receptor
Description: Inhibition of HGF-mediated c-Met phosphorylation in serum-starved human PC2 cells

[27] = target: Aurora kinase A (Homo sapiens) (UniProt O14965); assay: Inhibition of Aur2
[28] = Clearance in Sprague-Dawley rat at 0.5 mg/kg, iv; type: ADME, organism-based; design: dose 0.5 mg/kg, route intravenous; conditions: in vivo
[29] = Volume of distribution in steady state in Sprague-Dawley rat at 0.5 mg/kg, iv; type: ADME, organism-based; design: dose 0.5 mg/kg, route intravenous; conditions: in vivo, read-out: Vdss
[30] = Half life in Sprague-Dawley rat at 0.5 mg/kg, iv; type: ADME, organism-based; design: dose 0.5 mg/kg, route intravenous; conditions: in vivo

With COc1ccc2c(OCc3nnc4ccc(-c5cc(F)c(F)c(F)c5)nn34)ccnc2c1 the concentration at 6 h [1] was 6.7 µM, the ED90 (Mus musculus) was 30 mg/kg and the Activity [2] was greater than 10 µM. For the same compound, the Activity [3] was greater than 10 µM, the Activity [4] was greater than 10 µM and the Activity [5] was greater than 10 µM. For the same compound, the Activity [6] was greater than 10 µM, the Activity [7] was greater than 10 µM and the Activity [8] was greater than 10 µM. For the same compound, the IC50 [9] was 4 nM, the microsomal CLint [10] was 190 µL/min/mg and the microsomal CLint [11] was 156 µL/min/mg. The clearance [12] was 0.967 mL/min/kg, the Vd [13] was 0.152 L/kg and the half-life [14] was 210 min. The AUC(0-inf) [15] was 7840 ng·h/mL, the bioavailability [16] was 22% and the Activity [17] was greater than 10 µM. It also gave an Activity [18] greater than 10 µM, an Activity [19] greater than 10 µM and an Activity [20] greater than 10 µM. It also gave an Activity [21] greater than 10 µM, an Activity [22] greater than 10 µM and an Activity [23] greater than 10 µM. For the same compound, the Activity [24] was greater than 10 µM, the Activity [25] was greater than 10 µM and the IC50 [26] was 7 nM. It also gave an Activity [27] greater than 10 µM.
Work on COc1ccc2c(OCc3nnc4ccc(-c5ccccc5)nn34)ccnc2c1 [AMG-208] yielded a microsomal CLint [10] of 131 µL/min/mg, a microsomal CLint [11] of 122 µL/min/mg and a clearance [28] of 6.17 mL/min/kg. For the same compound, the Vd [29] was 0.38 L/kg, the half-life [30] was 60 min and the AUC(0-inf) [15] was 2520 ng·h/mL. The bioavailability [16] was 43% and the IC50 [26] was 46 nM.
For COc1ccc2c(OCc3nnc4ccc(-c5cc(C)ns5)nn34)ccnc2c1, the microsomal CLint [10] was 420 µL/min/mg, the microsomal CLint [11] was 173 µL/min/mg and the clearance [12] was 4 mL/min/kg. For the same compound, the Vd [13] was 0.35 L/kg, the half-life [14] was 155 min and the AUC(0-inf) [15] was 5100 ng·h/mL. It also gave a bioavailability [16] of 59%.
